Data reported in patent US12678446B2 (PFIZER INC., priority 2020, dated 2026).
Where two headings read alike, the source gives them in different places.

How the values were obtained:
[1] = test system: RSV (RSV A2 ECACC, 0709161v); test: RSV plaque reduction assay; format: cell-based, respiratory syncytial virus; conditions: mean of at least two experiments unless noted (n = 1)
Procedure, shortened: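 Eight-point compound dilutions were premixed with RSV A2 (100 PFU/well) and applied to confluent Hep-G2 cells for 2 h, followed by a 2-day incubation at 37° C. under compound-containing 0.8% CMC overlay. EC50 comes from immunostained plaque counts relative to untreated virus wells, averaged over ≥2 runs.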

[2] = test system: Hep-G2 cells; test: cell toxicity CC50; format: cell-based; conditions: mean of at least two experiments, read-out: Cell Cytotoxicity CC50
[3] = Liver microsomal stability, rat; format: in vitro ADME; conditions: rat liver microsomes 0.5 mg/mL, 1 μM compound, NADPH, up to 45 min; for half-life at 1 μM: pooled liver microsomes, pH 7.4, read-out: Liver Microsomal Stability t½
Experimental: (§1) Compounds were subjected to the following assays to investigate liver microsomal stability and hepatocyte stability.
(§2) Pooled liver microsomes were purchased from a reputable commercial supplier and stored at −80° C. prior to use. Microsomes (final protein concentration 0.5 mg/mL), 0.1 M phosphate buffer pH 7.4 and test compound (final substrate concentration 1 μM; final DMSO concentration 0.25%) were pre-incubated at 37° C. prior to the addition of NADPH (final concentration 1 mM) to initiate the reaction. The final incubation volume was 50 μL. A control incubation was included for each compound tested where 0.1 M phosphate buffer pH 7.4 was added instead of NADPH (minus NADPH). Two control compounds were included with each species. All incubations were performed singularly for each test compound. Each compound was incubated for 0, 5, 15, 30 and 45 min. The control (minus NADPH) was incubated for 45 min only. The reactions were stopped by transferring incubate into acetonitrile at the appropriate time points, in a 1:3 ratio. The termination plates are centrifuged at 3,000 rpm for 20 min at 4° C. to precipitate the protein. Following protein precipitation, the sample supernatants were combined in cassettes of up to 4 compounds, internal standard added, and samples analysed by LC-MS/MS. From a plot of ln peak area ratio (compound peak area/internal standard peak area) against time, the gradient of the line was determined. Subsequently, half-life (t1/2) and intrinsic clearance (CLint) were calculated.

[4] = Liver microsomal stability, dog; format: in vitro ADME; conditions: dog liver microsomes 0.5 mg/mL, 1 μM compound, NADPH, up to 45 min; for half-life at 1 μM: pooled liver microsomes, pH 7.4, read-out: Liver Microsomal Stability t½
Experimental: as §1, §2

[5] = Liver microsomal stability, human; format: in vitro ADME; conditions: human liver microsomes 0.5 mg/mL, 1 μM compound, NADPH, up to 45 min; for half-life at 1 μM: pooled liver microsomes, pH 7.4, read-out: Liver Microsomal Stability t½
Experimental: as §1, §2

[6] = Hepatocyte stability, rat; format: in vitro ADME; conditions: rat hepatocytes 0.5×10^6 viable cells/mL, 3 μM compound, up to 60 min; for half-life at 3 μM: cryopreserved pooled hepatocytes, read-out: Liver Hepatocyte Stability t½
Experimental: as §1
(§3) Hepatocyte Incubation: Experimental Procedure
(§4) Cryopreserved pooled hepatocytes were purchased from a reputable commercial supplier and stored in liquid nitrogen prior to use. Williams E media supplemented with 2 mM L-glutamine and 25 mM HEPES and test compound (final substrate concentration 3 μM; final DMSO concentration 0.25%) are pre-incubated at 37° C. prior to the addition of a suspension of cryopreserved hepatocytes (final cell density 0.5×10^6 viable cells/mL in Williams E media supplemented with 2 mM L-glutamine and 25 mM HEPES) to initiate the reaction. The final incubation volume is 500 μL. Two control compounds were included with each species, alongside appropriate vehicle control. The reactions are stopped by transferring 50 μL of incubate to 100 μL acetonitrile containing internal standard at the appropriate time points. Samples were removed at 6 time points (0, 5, 15, 30, 45 and 60 min) over the course of a 60 min experiment. The termination plates are centrifuged at 2500 rpm at 4° C. for 30 min to precipitate the protein. Following protein precipitation, the sample supernatants were combined in cassettes of up to 4 compounds and analysed using generic LC-MS/MS conditions. From a plot of ln peak area ratio (compound peak area/internal standard peak area) against time, the gradient of the line is determined. Subsequently, half-life (t½) and intrinsic clearance (CLint) were calculated.

[7] = Hepatocyte stability, dog; format: in vitro ADME; conditions: dog hepatocytes 0.5×10^6 viable cells/mL, 3 μM compound, up to 60 min; for half-life at 3 μM: cryopreserved pooled hepatocytes, read-out: Liver Hepatocyte Stability t½
Experimental: as §1, §3, §4

[8] = Hepatocyte stability, human; format: in vitro ADME; conditions: human hepatocytes 0.5×10^6 viable cells/mL, 3 μM compound, up to 60 min; for half-life at 3 μM: cryopreserved pooled hepatocytes, read-out: Liver Hepatocyte Stability t½
Experimental: as §1, §3, §4

[9] = Rat pharmacokinetics in vivo (IV 1 mg/kg, PO 10 mg/kg); design: species or system Male rats [Sprague Dawley (SD)]; conditions: male SD rat; for F: PO 10 mg/kg vs IV 1 mg/kg; for Cmax: PO 10 mg/kg study; for AUC(0-t): read-out: PO AUClast; for concentration at 8 h: read-out: C 8 h
Experimental: The pharmacokinetics of compounds were studied in vivo in rats at doses of 1 mg/kg (IV) and 10 mg/kg (PO).
Male rats [Sprague Dawley (SD)] surgically prepared with a jugular vein cannula were treated with experimental compounds via intravenous administration (IV; n=3; 1 mg/kg) or oral administration (PO; n=3; 10 mg/kg). Compounds were formulated as a solution in 40:60 dimethylacetamide:saline (IV administration) and a solution of 10% DMSO, 10% cremaphor in water (80%) (PO administration). […] Serial blood samples were collected via the cannula at 0.02, 0.08, 0.25, 0.5, 1, 2, 4, 6, 8 and 24 h post IV dosing of compound, and at 0.08, 0.25, 0.5, 1, 2, 4, 6, 8 and 24 h post oral dosing of compound, and plasma was prepared by centrifugation and stored immediately at −80° C. Samples were subsequently thawed, prepared for analysis by protein precipitation with acetonitrile, and analysed by tandem LCMS using electrospray ionisation using a matrix-matched calibration curve. PK parameters were calculated from the resulting data.

[10] = cell toxicity CC50; format: cell-based; conditions: human; Hep-G2 cells; mean of at least two experiments; read-out: Cell Cytotoxicity CC50
[11] = test system: RSV; conditions: Antimicrobial Agents and Chemotherapy, September 2007, 3346-3353; cited from earlier work
[12] = human respiratory syncytial virus, HepG2, read-out: RSV A2 Plaque EC50, RSV A2 in Hep-G2 cells
[13] = Sprague Dawley, plasma, IV 1 mg/kg
[14] = Sprague Dawley, plasma, IV 1 mg/kg, read-out: IV t½ (converted)
[15] = Sprague Dawley, plasma, IV 1 mg/kg, read-out: Vd
[16] = Sprague Dawley, plasma, PO 10 mg/kg
[17] = Sprague Dawley, plasma, PO 10 mg/kg, read-out: PO t½ (converted)
[18] = Sprague Dawley, plasma, IV 1 mg/kg, read-out: Cmax

For “(5R)-2-(3-Fluoropyridin-4-yl)-5-methyl-N-[(3S)-9-fluoro-2-oxo-5-phenyl-1,3-dihydro-1,4-benzodiazepin-3-yl]-6,7-dihydro-5H-pyrazolo[5,1-b][1,3]oxazine-3-carboxamide [Example 51]”, the EC50 ([1]; RSV A2 in Hep-G2 cells, read-out: RSV A2 Plaque EC50) was 0.08 µM, the CC50 [2] was over 25 µM and the “Liver Microsomal Stability t½” value [3] was 1.1 h. The “Liver Microsomal Stability t½” value [4] was over 2.33 h, the “Liver Microsomal Stability t½” value [5] was 1.04 h and the “Liver Hepatocyte Stability t½” value [6] was 1.88 h. The “Liver Hepatocyte Stability t½” value [7] was 16.4 h, the “Liver Hepatocyte Stability t½” value [8] was 1.47 h and the Cl ([9]; IV 1 mg/kg) was 46.4 mL/min/kg. For the same molecule, the “IV t½” value ([9]; IV 1 mg/kg) was 0.48 h, the Vd ([9]; IV 1 mg/kg) was 1.0 L/kg and the “PO AUClast” value ([9]; PO 10 mg/kg) was 1582 ng·h/mL. For the same molecule, the “PO t½” value ([9]; PO 10 mg/kg) was 1.1 h, the F [9] was 44.3% and the Cmax ([9]; IV 1 mg/kg) was 730 ng/mL. For the same molecule, the “C 8 h” value ([9]; plasma at 8 h) was 7.6 ng/mL.
Molecule `C[C@H]1CCn2nc(-c3ccccc3F)c(C(=O)N[C@H]3N=C(c4ccccc4)c4cccc(F)c4NC3=O)c2O1` [Example 27, (5S)-N-[(3S)-9-fluoro-2-oxo-5-phenyl-1,3-dihydro-1,4-benzodiazepin-3-yl]-2-(2-fluorophenyl)-5-methyl-6,7-dihydro-5H-pyrazolo[5,1-b][1,3]oxazine-3-carboxamide] has an EC50 [1, 12] of 0.02 µM, a CC50 [10] of over 25 µM and a half-life at 1 μM [3] of 1.4 h. For the same molecule, the half-life at 1 μM [4] was 7.72 h, the half-life at 1 μM [5] was 2.25 h and the half-life at 3 μM [6] was 8.08 h. For the same molecule, the half-life at 3 μM [7] was over 3.1 h, the half-life at 3 μM [8] was over 3.1 h and the clearance [9, 13] was 24.9 mL/min/kg. For the same molecule, the half-life [9, 14] was 0.72 h, the Vd [9, 15] was 0.9 L/kg and the AUC(0-t) [9, 16] was 3140 ng·h/mL. It also gave a half-life [9, 17] of 2.8 h, a Cmax [9, 18] of 960 ng/mL and a concentration at 8 h ([9]; Sprague Dawley, plasma at 8 h) of 75.9 ng/mL. The F [9] was 49.6%.
In the case of `O=C(Nc1ccccc1F)N[C@H]1N=C(c2ccccc2)c2ccccc2NC1=O` [RSV604], the anti-RSV activity [11] is listed as “sub-micromolar anti-RSV activity”.
`CCc1ccc(-c2nn3c(c2C(=O)N[C@H]2N=C(c4ccccc4)c4cccc(F)c4NC2=O)OCCC3)cn1` [Example 106, 2-(6-Ethylpyridin-3-yl)-N-[(3S)-9-fluoro-2-oxo-5-phenyl-1,3-dihydro-1,4-benzodiazepin-3-yl]-6,7-dihydro-5H-pyrazolo[5,1-b][1,3]oxazine-3-carboxamide] gave an EC50 [1, 12] of 0.048 µM, a CC50 [10] of over 25 µM and a half-life at 1 μM [3] of 0.815 h. It also gave a half-life at 1 μM [4] of 1.82 h, a half-life at 1 μM [5] of 3.1 h and a half-life at 3 μM [6] of 1.59 h. For the same molecule, the half-life at 3 μM [7] was 2 h, the half-life at 3 μM [8] was over 3.1 h and the clearance [9, 13] was 14.6 mL/min/kg. It also gave a half-life [9, 14] of 1.2 h, a Vd [9, 15] of 0.7 L/kg and an AUC(0-t) [9, 16] of 5690 ng·h/mL. It also gave a half-life [9, 17] of 3.6 h, a Cmax [9, 18] of 1030 ng/mL and a concentration at 8 h ([9]; Sprague Dawley, plasma at 8 h) of 271 ng/mL. It also gave an F [9] of 59.4%.
`C[C@@H]1CCn2nc(-c3ccccc3F)c(C(=O)N[C@H]3N=C(c4ccccc4)c4cccc(F)c4NC3=O)c2O1` [Example 25, (5R)-N-[(3S)-9-fluoro-2-oxo-5-phenyl-1,3-dihydro-1,4-benzodiazepin-3-yl]-2-(2-fluorophenyl)-5-methyl-6,7-dihydro-5H-pyrazolo[5,1-b][1,3]oxazine-3-carboxamide] gave an EC50 [1, 12] of 0.024 µM, a CC50 [10] of over 25 µM and a half-life at 1 μM [3] of over 2.33 h. The half-life at 1 μM [4] was over 2.33 h, the half-life at 1 μM [5] was 16.8 h and the half-life at 3 μM [6] was 1.8 h. It also gave a half-life at 3 μM [7] of over 3.1 h, a half-life at 3 μM [8] of 4.73 h and a clearance [9, 13] of 4.7 mL/min/kg. For the same molecule, the half-life [9, 14] was 2.2 h, the Vd [9, 15] was 0.6 L/kg and the AUC(0-t) [9, 16] was 14900 ng·h/mL. For the same molecule, the half-life [9, 17] was 3.4 h, the Cmax [9, 18] was 1880 ng/mL and the concentration at 8 h ([9]; Sprague Dawley, plasma at 8 h) was 812 ng/mL. For the same molecule, the F [9] was 40.3%.
